# Results: US20100119454A1, “Use of the conserved Drosophila NPFR1 system for uncovering interacting genes and pathways important in nociception and stress response” (priority 2008, published 2010)
# B1: NPF: Drosophila neuropeptide F, sole fly homolog of human NPY; synthesized by Quality Controlled Biochemicals (SEQ ID NO: 5) (peptide)
# chain: MCQTMRCILVACVALALLAAGCRVEASNSRPPRKNDVNTMADAYKFLQDLDTYYGDRARVRFGKRGSLMDILRNHEMDNINLGKNANNGGEFARGFNEEEIF
# modifications: Drosophila melanogaster
# Tests used:
# rat TRPV1 = biological target: T1, rat TRPV1 (Rattus norvegicus, UniProt O35433, E600K); experiment: Calcium imaging of HEK 293 cells (Fluo-4/Fura-red), capsaicin-induced Ca2+ influx; type: cell-based
# T1 construct: expressed in transfected cells; host or cells: HEK293 cells, transient transfection with pcDNA3.1D (Invitrogen) carrying TRPV1 (E600K) cDNA
# Procedure: Transfection and Calcium imaging of HEK 293 cells. HEK293 cells were maintained under standard conditions (37° C., 5% CO2) in Dulbecco's Modified Eagle's Medium (Mediatech) supplemented with 10% fetal bovine serum, penicillin and streptomycin. pcDNA3.1D directional expression system (Invitrogen) was used to clone and express rat TRPV1 and fly NPFR1 cDNA in HEK293 cells. TRPV1 cDNA was PCR amplified from TRPV1 (E600K) sequence (Marella et al., 2006), using the following primers: 5′ […] 3′ (SEQ ID NO: 11) and 5′ […] 3′ (SEQ ID NO: 12). NPFR1 cDNA was PCR amplified from an NPFR1 cDNA plasmid(34), using two primers: 5′ […] 3′ (SEQ ID NO: 13) and 5′ […] 3′ (SEQ ID NO: 14). HEK293 cells were cultured on 8-well polyornithine-coated chambered coverglasses (Nunc) for 24 hrs before transfection. A suspension of 200 μl of water containing 0.4 μg plasmid DNA and 0.8 μl of Lipofectamine 2000 (Invitrogen) was used for transfection. The amounts of TRPV1 and NPFR1 cNDA used were 20 ng and 200 ng, respectively. pcDNA3.1 vector DNA was supplemented, when necessary, to ensure the equal amount of total DNA per transfection.
# Calcium imaging was performed between 36-42 hours post transfection at 23° C. Cells were loaded with 1 μM Fluo-4 and 2 μM Fura-red (Invitrogen) for 90 min in Hanks' balanced salt solution (HBSS; Gibco), washed once with HBSS, and imaged using a Zeiss Axiovert 200M scope equipped with a Zeiss LSM 510 Meta laser scanning module. Dyes were excited at 488 nm with argon laser. Emission fluorescence was filtered by a BP505-530 and an LP585 filter. Images were collected for 300 s upon capsaicin stimulation at 1 frame s^−1, and analyzed with the SOARS analysis. NPF was synthesized by Quality Controlled Biochemicals. NPF and cyclic nucleotide analogs (Sigma) were pre-incubated at 23° C. with cells for 20-25 min before adding capsaicin.
# [1] = biological target: T2, VR1E600K, a variant of vanilloid receptor TRPV1 (Rattus norvegicus, UniProt O35433, E600K); experiment: Capsaicin avoidance (migration) of larvae expressing mammalian TRPV1 in PAIN neurons; type: in vivo, Drosophila melanogaster
# T2 construct: expressed in transfected cells; host or cells: Drosophila melanogaster larvae, PAIN neurons (pain-gal4 x UAS-VR1E600K / UAS-TRPV1 transgenic line, Marella et al. 2006)
# Source text: To provide further evidence that larval wandering behavior represents an aversive response to fructose, pain-gal4 was used to express a mammalian TRP channel protein VR1E600K, a variant of vanilloid receptor TRPV1 responsive to a spicy substance capsaicin from chili peppers (see the following references, which are incorporated herein by reference in their entireties: Caterina, M. J., et al., 1997; Marella, S., et al., 2006; Tobin, D. M., et al., 2002).
# Behavioral assays. The migration assay on soft agar media was performed as described previously (Xu et al., 2008), which is hereby incorporated by reference herein in its entirety. […] The percentage of pupae on agar media was scored after 24 hours. […]
# [2] = test system: D. melanogaster post-feeding larvae; experiment: Larval food aversion (migration) assay on soft agar media; type: in vivo, Drosophila melanogaster; settings: for triggering larval wandering: 10% in soft agar paste, post-feeding larvae
# Procedure: Behavioral Assays. The food aversion assay was performed in plastic petri dishes (60 mm in diameter). Each apple juice-agar plate contains a mix (ca. 7 ml) of 1 g of Drosophila agar powder (USB, Swampscott, Mass.) and 6 ml apple-juice solution (0.1 g carbohydrates per ml, equivalent to 20% of frozen concentrate). Other soft agar media were made by mixing 1 g agar powder with 6.5 ml of distilled water or solution containing 10% fructose, 10% lactose, 10% sorbitol or 50 μM capsaicin, respectively. The amount of agar powder may require adjustment depending on agar quality. Twenty-five new post-feeding larvae (96 h AEL) were transferred onto a plate. The larvae were allowed to move freely on the medium, and those that crawled onto the plastic surface became less mobile and eventually formed pupae there. The percent of pupae on agar media was scored after 24 hours. All experiments were performed at room temperature except for the temperature shift assay. In these experiments, larvae and food media were pre-incubated at 30° C. for 60 min before the assay. The larvae were subsequently transferred onto the medium and kept at 30° C. All assays were performed in the dark. At least three separate trials were performed per assay.
# Behavioral assays. The migration assay on soft agar media was performed as described previously (Xu et al., 2008), which is hereby incorporated by reference herein in its entirety. Twenty-five postfeeding larvae (96 h AEL) in one plate were allowed to move freely on the medium, and those that crawled onto the plastic surface became less mobile, and eventually formed pupae there. The percentage of pupae on agar media was scored after 24 hours. The clumping assay was also described in the following, which is hereby incorporated by reference herein in its entirety (Wu et al., 2003). Briefly, 45 mm petri dishes containing solid fructose agar (3% agar in a 10% fructose solution) were coated with a thin layer of yeast paste (0.5 g yeast powder in 10% fructose solution). Thirty larvae per plate were allowed to browse for 30 min, and those in clumps were scored immediately. The social burrowing assay was performed on solid agar media containing apple juice or 10% fructose, as described (Wu et al., 2003). All assays, unless stated otherwise, were performed at room temperature in the dark. At least three separate trials were performed per assay.
# [3] = biological target: T2, VR1E600K, a variant of vanilloid receptor TRPV1; experiment: Two-choice medium preference assay (capsaicin vs capsaicin-free media); type: in vivo
# Procedure: The two-choice medium preference assay was performed on a 2.5% agar plate. The apple juice or water agar paste is the same as described above. 10 μl of 5 mM capsaicin stock solution (in 100% ethanol) or 10 μl ethanol was added to each ml of the agar media. 30 larvae were washed extensively to remove any food particles. They were then placed between the two piles of capsaicin and capsaicin-free media (1 cm in diameter), which are located 4 mm apart. The number of larvae in each medium was recorded after 20 min. A preference index was defined as the fraction of larvae choosing the capsaicin-free medium, minus the fraction of larvae choosing the capsaicin medium.
# [4] = test system: pain-expressing sensory neurons; experiment: Calcium imaging (yellow cameleon 2.1, SOARS analysis) of larval sensory neurons; type: cell-based, Drosophila melanogaster; settings: pain^gal4/+; UAS-YC 2.1/+, 96 h AEL, lactose-lactose alternate, ventral sensory neurons in T2 and T3
# Procedure: Imaging. The live images of second instar larvae (ca. 48 h AEL) expressing DsRed driven by pain-gal4 were obtained using a Leica epifluorescence microscope. The immunofluorescence images were taken by a Zeiss LSM 510 Meta confocal microscope and processed by Zeiss AIM Image Examiner. […] Larvae were dissected in a modified HL6 solution containing lactose (HL6-Lac, 23.7 mM NaCl, 15 mM MgCl2, 24.8 mM KCl, 0.5 mM CaCl2, 10 mM NaHCO3, 5 mM HEPES, 240 mM lactose)^38. An incision was made along the dorsal midline, and the gut and the fat bodies were removed. The tissue was placed ventral side up in HL6 solution on a silicon-coated coverslip (Sylgard 184, DOW Corning Corp., Midland, Mich.) in a Dvorak-Stotler perfusion chamber (Lucas Highland, Chantilly, Va.). A minute amount of cyanoacrylate glue (Nexaband S/C, Abott Laboratories, North Chicago, Ill.) was applied to the edge of the cuticle using a glass micropipette to immobilize the tissue. The imaging was performed on a Zeiss LSM 510 Meta confocal microscope (Carl Zeiss Microimaging, Thornwood, N.Y.). YC2.1 was excited at 458 nm with an argon laser. Emission fluorescence was filtered by a BP 475-525 filter (cyan) and an LP 530 filter (yellow). 256×256 pixel images for ratiometric analysis were collected at 1 frame s^−1. The tissue was perfused at a rate of 8.3 ul s^−1 with HL6-Lac, periodically alternating with a modified HL6 solution containing fructose (HL6-Fru, with 240 mM fructose substituting 240 mM lactose in HL6-Lac), switching at 120-second intervals for a total of 800 seconds. The images were subsequently analyzed with the SOARS method (Statistical Optimization for the Analysis of Ratiometric Signals, Version 1.1) as described in the following references, which are hereby incorporated by reference herein in their entireties (Fan, X., et al., 2007; Broder, J., et al., 2007), using Matlab (MathWorks, Natick, Mass.; also see http://www.engr.uga.edu/research/groups/atslab/Software.html).
# In brief, SOARS is a multivariate statistical optimization procedure performed on both CFP and YFP channels of the FRET imaging data. The analysis results in a set of eigenimages and associated time courses that represent the part of the imaged signal displaying statistically significant spatial correlation and temporal anti-correlation (e.g., the aspects of the signal that are demonstrable due to FRET). These eigenimages represent the spatial distribution of anti-correlated FRET changes in response to sugar stimulation. Because the stimulus was periodic, the time courses were tested for the presence of stimulus-locked activity. To quantify the significance of the periodic part of the FRET response, p-values for a periodic (sinusoidal) response at the stimulus frequency were calculated using multitaper harmonic analysis (a common method for the detection of sinusoids in noisy data) as described in the following references, which are hereby incorporated herein by reference in their entirety. (Thomson 1982; Mitra et al., 1999, Sornborger et al., 2003; Mitra et al., 2008).
# In vivo calcium imaging. […] To quantify the significance of anti-correlated FRET response to fructose stimulation, p-values were calculated for a periodic (sinusoidal) response at the stimulus frequency using multitaper harmonic analysis, a common method for the detection of sinusoids in noisy data (Thomson, 1982), which is hereby incorporated by reference herein in its entirety.
# [5] = HEK 293 cells, cyclic nucleotide analog pre-incubated 20-25 min before capsaicin
# T1 sequence (O35433 whole entry E600K): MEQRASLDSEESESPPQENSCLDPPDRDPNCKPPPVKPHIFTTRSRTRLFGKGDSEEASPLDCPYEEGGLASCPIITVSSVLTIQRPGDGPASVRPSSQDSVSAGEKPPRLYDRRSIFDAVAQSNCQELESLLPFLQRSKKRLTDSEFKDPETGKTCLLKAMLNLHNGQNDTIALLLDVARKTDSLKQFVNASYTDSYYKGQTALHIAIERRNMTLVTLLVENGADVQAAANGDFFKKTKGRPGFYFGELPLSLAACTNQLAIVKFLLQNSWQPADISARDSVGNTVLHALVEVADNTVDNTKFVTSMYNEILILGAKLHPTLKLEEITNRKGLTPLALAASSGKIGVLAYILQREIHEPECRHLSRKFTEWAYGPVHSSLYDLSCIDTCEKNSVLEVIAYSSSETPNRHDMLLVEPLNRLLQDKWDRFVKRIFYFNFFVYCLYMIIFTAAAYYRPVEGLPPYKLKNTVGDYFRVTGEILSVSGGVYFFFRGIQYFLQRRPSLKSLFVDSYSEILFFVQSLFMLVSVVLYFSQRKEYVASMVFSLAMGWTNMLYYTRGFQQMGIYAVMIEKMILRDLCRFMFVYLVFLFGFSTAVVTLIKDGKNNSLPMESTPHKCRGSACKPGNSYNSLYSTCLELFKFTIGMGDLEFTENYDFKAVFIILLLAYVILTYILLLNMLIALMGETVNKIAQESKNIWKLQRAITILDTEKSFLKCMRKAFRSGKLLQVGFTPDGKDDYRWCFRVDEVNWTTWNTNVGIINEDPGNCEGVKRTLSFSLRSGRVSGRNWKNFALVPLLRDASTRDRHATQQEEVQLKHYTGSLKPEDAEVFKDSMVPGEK
# T2 sequence (O35433 whole entry E600K, the tested form may be a part): as the sequence (O35433 whole entry E600K) above
molecule,measurement,setting,value
Nc1ncnc2c1nc(Br)n2[C@@H]1O[C@@H]2COP(=O)(O)O[C@H]2[C@H]1O [8-Br-cAMP],effect on TRPV1-mediated Ca2+ influx,rat TRPV1; [5],significantly increased
Nc1nc2c(nc(Br)n2[C@@H]2O[C@@H]3COP(=O)(O)O[C@H]3[C@H]2O)c(=O)[nH]1 [8-Br-cGMP],effect on NPFR1 suppression of TRPV1,"rat TRPV1; HEK 293 cells expressing NPFR1 and TRPV1, in the presence of 8-Br-cGMP",significantly enhanced
same,effect on TRPV1 activity,rat TRPV1; [5],slightly reduced
COc1cc(CNC(=O)CCCC/C=C/C(C)C)ccc1O [capsaicin],migratory response to capsaicin agar paste,"[1]; 400 nM capsaicin, larvae expressing UAS-TRPV1 driven by pain-gal4",migrate away
same,"response to capsaicin-agar medium, control larvae","[1]; 25 μM capsaicin, control larvae (e.g., VR1E600K alone, no driver)",no aversive response
same,migratory response to capsaicin-agar medium,"[1]; 25 μM capsaicin, post-feeding larvae expressing VR1E600K driven by pain-gal4",migrated away
same,response of wild type larvae to capsaicin,[2]; wild type Drosophila larvae (no TRPV1),neither attractive nor aversive response
same,time to significant Ca2+ influx in response to capsaicin,"rat TRPV1; HEK293 cells transfected with TRPV1 cDNA alone, 400 nM capsaicin",≤ 30 s
same,"medium preference in two-choice assay, post-feeding larvae",[3]; post-feeding VR1E600K-expressing larvae,preference for capsaicin-free media
same,"medium preference in two-choice assay, feeding larvae",[3]; younger feeding VR1E600K-expressing larvae (74 h AEL),no such preference
OC[C@H]1O[C@@H](O[C@H]2[C@H](O)[C@@H](O)C(O)O[C@@H]2CO)[C@H](O)[C@@H](O)[C@H]1O (stereo partly shown) [lactose],triggering larval wandering,[2],not effective
same,Anti-correlated signal,[4],No
OC[C@@H](O)[C@@H](O)[C@H](O)[C@@H](O)CO [sorbitol],triggering larval wandering,[2],not effective
OC[C@H]1O[C@@](CO)(O[C@H]2O[C@H](CO)[C@@H](O)[C@H](O)[C@H]2O)[C@@H](O)[C@@H]1O [sucrose],response of wild type larvae to sugar media,"[2]; 10% sugar media, wild type larvae (FIG. 2B)",aversive
B1,effect of NPF on response to capsaicin,"rat TRPV1; HEK293 cells co-transfected with NPFR1 and TRPV1 cDNAs, in the presence of NPF (1 mM per FIG. 15 legend), 400 nM capsaicin",drastically attenuated and delayed responses
same,effect of NPF on TRPV1 activity,rat TRPV1; HEK293 cells transfected with TRPV1 cDNA alone,mild reduction
